Data taken from paper PMC12028158, “Synthesis and In Vitro Evaluation of the Anticancer Effect of Novel Phosphonium Vindoline Derivatives” (International Journal of Molecular Sciences, 2025).

Tests used:
A2780 = test: MTT antiproliferative assay; format: cell-based, human
Description: (§1) The antiproliferative properties of the tested compounds were additionally determined using the MTT assay against a panel of human adherent cancer cell lines isolated from breast (MCF-7 and MDA-MB-231), cervical (HeLa and SiHa), and ovarian (A2780) tumors and also on the NIH/3T3 fibroblast cell line (Table 3). IC50 values were calculated from a wider concentration range (0.1–30 μM) when higher than 50% cell growth inhibition was obtained at 10 μM (Table 4). Cisplatin was used as a reference compound. […] The noncancerous fibroblast cell line NIH/3T3 was used to gather preliminary data regarding the cancer selectivity of vindolin derivatives. […] The tumor selectivity of compound 9g, expressed as the ratio of IC50 on cancer cells and fibroblasts, is substantially higher than that of cisplatin (Table 4).
(§2) The antiproliferative effects of the prepared derivatives were evaluated in vitro using the MTT assay against a panel of human adherent cancer cell lines, including breast (MDA-MB-231, MCF-7), cervical (SiHa, HeLa), and ovarian (A2780) cancer cells. The noncancerous fibroblast cell line NIH/3T3 was included to obtain data concerning the tumor selectivity of the test substances. All cell lines were sourced from the European Collection of Cell Cultures (Salisbury, UK), except for SiHa (American Tissue Culture Collection (Manassas, VA, USA). All cell lines were maintained in Eagle’s Minimal Essential Medium (EMEM) supplemented with 10% fetal bovine serum (FBS), 1% non-essential amino acids, and a mixture of penicillin, streptomycin, and amphotericin B. The cells were maintained in a humidified atmosphere containing 5% CO2 at 37 °C. The media and the cell culture supplements were procured from Capricorn Scientific Ltd. (Ebsdorfergrund, Germany). Cells were seeded into 96-well microplates at 5000/well and, the next day, treated with vindoline derivatives at two concentrations (10 or 30 μM) for 72 h under cell culturing conditions. […] When higher than 50% cell growth inhibition was observed, the assay was repeated using a wide concentration range (0.1–30 μM). The IC50 values were calculated using GraphPad Prism software 10.3.1 (GraphPad Software, San Diego, CA, USA). Two independent experiments were performed with at least five replicates per condition.

HeLa = test: MTT antiproliferative assay; format: cell-based, human
Description: as §1, §2

MDA-MB-231 = test: MTT antiproliferative assay; format: cell-based, human
Description: as §1, §2

SiHa = test: MTT antiproliferative assay; format: cell-based, human
Description: as §1, §2

NIH/3T3 (fibroblast) = test: MTT antiproliferative assay; format: cell-based; conditions: Mus musculus, 72 h
Description: as §1, §2

A2780 cells = test: Cell cycle analysis (propidium iodide flow cytometry); format: cell-based, human
Description: Based on its promising IC50 and selectivity, compound 9g was selected for further investigations, including cell cycle analysis. Treatment with derivative 9g induced concentration- and time-dependent cell cycle disturbances in A2780 ovarian cancer cells, accompanied by apoptosis (Figure 3). […] After a 48 h exposure, the lower concentration maintained this pattern (G0/G1 elevation and S and G2/M reduction).
A2780 cells were seeded onto 12-well plates at densities of 200,000 cells per well and the plates were then incubated overnight under standard cell culture conditions. Then, the media were removed and the cells in each well were washed with phosphate-buffered saline (PBS) and treated with 1000 µL of fresh medium containing 1.5 or 3.0 µM of compound 9g for 24 or 48 h. After the incubation, the cells were washed with PBS and harvested using trypsinization. The cell suspensions were centrifuged at 1100 rpm for 5 min at room temperature. The cells were rewashed and fixed in 500 µL of cold 70% ethanol for 30 min. Following the fixation, cells were centrifuged at 1300 rpm for 5 min at 4 °C and the pellets were resuspended in 300 µL staining solution (containing 10 µg/mL propidium iodide, 0.1% Triton-X, 0.1% sodium citrate, and 10 µg/mL RNase-A in water). The samples were stored in the dark at room temperature for 30 min. The stained cells were then analyzed using a flow cytometer (CytoFLEX, Beckman Coulter, Brea, CA, USA), recorded by CytExpert Software 2.5.0.77 (Beckman Coulter), ensuring that at least 20,000 events per sample were evaluated. The percentages of cells in different phases of the cell cycle (subG1, G1, S, and G2/M) were determined using ModFit LT 3.3.11 software (Verity Software House, Topsham, ME, USA); the subG1 fraction indicated the apoptotic cell population, as referenced by Vermes et al.. […]

For `CC[C@]12C=CCN3CC[C@@]4(c5ccc(OC)cc5N(C)[C@H]4[C@@](O)(C(=O)OC)[C@@H]1OC(=O)CCC[P+](c1ccccc1)(c1ccccc1)c1ccccn1)[C@@H]32` [9g], the inhibition at 10 µM (A2780; Homo sapiens, A2780, 10 μM, 72 h, read-out: Growth Inhibition (%) ± SEM) was 79.4 ± 2.63%, the inhibition at 30 µM (A2780; Homo sapiens, A2780, 30 μM, 72 h, read-out: Growth Inhibition (%) ± SEM (converted)) was 85.5% and the IC50 (A2780; Homo sapiens, A2780, MTT, 72 h, read-out: IC50 Value (μM) ± SEM) was 1.5 ± 0.2 µM. The “Selectivity Ratio” value (A2780; ratio of IC50 on A2780 cells and NIH/3T3 fibroblasts) was 0.10, the inhibition at 10 µM (HeLa; Homo sapiens, HeLa, 10 μM, 72 h, read-out: Growth Inhibition (%) ± SEM) was 61.5 ± 2.35% and the inhibition at 30 µM (HeLa; Homo sapiens, HeLa, 30 μM, 72 h, read-out: Growth Inhibition (%) ± SEM (converted)) was 68.5%. For the same molecule, the IC50 (HeLa; Homo sapiens, HeLa, MTT, 72 h, read-out: IC50 Value (μM) ± SEM) was 6.48 ± 0.12 µM, the “Selectivity Ratio” value (HeLa; ratio of IC50 on HeLa cells and NIH/3T3 fibroblasts) was 0.45 and the inhibition at 10 µM (MDA-MB-231; Homo sapiens, MDA-MB-231, 10 μM, 72 h, read-out: Growth Inhibition (%) ± SEM) was 72.04 ± 0.35%. For the same molecule, the inhibition at 30 µM (MDA-MB-231; Homo sapiens, MDA-MB-231, 30 μM, 72 h, read-out: Growth Inhibition (%) ± SEM (converted)) was 87.7%, the IC50 (MDA-MB-231; Homo sapiens, MDA-MB-231, MTT, 72 h, read-out: IC50 Value (μM) ± SEM) was 3.35 ± 0.12 µM and the “Selectivity Ratio” value (MDA-MB-231; ratio of IC50 on MDA-MB-231 cells and NIH/3T3 fibroblasts) was 0.23. For the same molecule, the inhibition at 10 µM (SiHa; Homo sapiens, SiHa, 10 μM, 72 h, read-out: Growth Inhibition (%) ± SEM) was 62.5 ± 0.87%, the inhibition at 30 µM (SiHa; Homo sapiens, SiHa, 30 μM, 72 h, read-out: Growth Inhibition (%) ± SEM (converted)) was 83.8% and the IC50 (SiHa; Homo sapiens, SiHa, MTT, 72 h, read-out: IC50 Value (μM) ± SEM) was 2.42 ± 0.05 µM. For the same molecule, the “Selectivity Ratio” value (SiHa; ratio of IC50 on SiHa cells and NIH/3T3 fibroblasts) was 0.17, the inhibition at 10 µM (NIH/3T3 (fibroblast); NIH3T3, 10 μM, read-out: Growth Inhibition (%) ± SEM) was 34.6 ± 1.11% and the inhibition at 30 µM (NIH/3T3 (fibroblast); NIH3T3, 30 μM, read-out: Growth Inhibition (%) ± SEM (converted)) was 77.2%. The IC50 (NIH/3T3 (fibroblast); NIH3T3, MTT, read-out: IC50 Value (μM) ± SEM) was 14.37 ± 0.02 µM, the “S and G2/M phase populations” value (A2780 cells; A2780, 1.5 μM and 3.0 μM, 24 h) was “decreasing” and the “proportion of cells in the G0/G1 phase” value (A2780 cells; A2780, 1.5 μM and 3.0 μM, 24 h) was “significantly increased”. For the same molecule, the subG1 cell population (A2780 cells; A2780, particularly after the more prolonged exposure (48 h)) was “remarkable increase”.
